{"source": "patent US12708630B2", "about": "“Combined therapy of 4′-thio-5-aza-2′-deoxycytidine and Venetoclax” (PINOTBIO, INC., priority 2021, dated 2026)", "key": {"MDS/AML model": {"test_system": "MDS/AML model", "assay": "AUC exposure versus efficacy in the MDS/AML model", "assay_type": "in vivo"}, "DNMT1 [1]": {"target": "T1, DNMT1 (Homo sapiens, UniProt P26358)", "T1 sequence (P26358 whole entry)": "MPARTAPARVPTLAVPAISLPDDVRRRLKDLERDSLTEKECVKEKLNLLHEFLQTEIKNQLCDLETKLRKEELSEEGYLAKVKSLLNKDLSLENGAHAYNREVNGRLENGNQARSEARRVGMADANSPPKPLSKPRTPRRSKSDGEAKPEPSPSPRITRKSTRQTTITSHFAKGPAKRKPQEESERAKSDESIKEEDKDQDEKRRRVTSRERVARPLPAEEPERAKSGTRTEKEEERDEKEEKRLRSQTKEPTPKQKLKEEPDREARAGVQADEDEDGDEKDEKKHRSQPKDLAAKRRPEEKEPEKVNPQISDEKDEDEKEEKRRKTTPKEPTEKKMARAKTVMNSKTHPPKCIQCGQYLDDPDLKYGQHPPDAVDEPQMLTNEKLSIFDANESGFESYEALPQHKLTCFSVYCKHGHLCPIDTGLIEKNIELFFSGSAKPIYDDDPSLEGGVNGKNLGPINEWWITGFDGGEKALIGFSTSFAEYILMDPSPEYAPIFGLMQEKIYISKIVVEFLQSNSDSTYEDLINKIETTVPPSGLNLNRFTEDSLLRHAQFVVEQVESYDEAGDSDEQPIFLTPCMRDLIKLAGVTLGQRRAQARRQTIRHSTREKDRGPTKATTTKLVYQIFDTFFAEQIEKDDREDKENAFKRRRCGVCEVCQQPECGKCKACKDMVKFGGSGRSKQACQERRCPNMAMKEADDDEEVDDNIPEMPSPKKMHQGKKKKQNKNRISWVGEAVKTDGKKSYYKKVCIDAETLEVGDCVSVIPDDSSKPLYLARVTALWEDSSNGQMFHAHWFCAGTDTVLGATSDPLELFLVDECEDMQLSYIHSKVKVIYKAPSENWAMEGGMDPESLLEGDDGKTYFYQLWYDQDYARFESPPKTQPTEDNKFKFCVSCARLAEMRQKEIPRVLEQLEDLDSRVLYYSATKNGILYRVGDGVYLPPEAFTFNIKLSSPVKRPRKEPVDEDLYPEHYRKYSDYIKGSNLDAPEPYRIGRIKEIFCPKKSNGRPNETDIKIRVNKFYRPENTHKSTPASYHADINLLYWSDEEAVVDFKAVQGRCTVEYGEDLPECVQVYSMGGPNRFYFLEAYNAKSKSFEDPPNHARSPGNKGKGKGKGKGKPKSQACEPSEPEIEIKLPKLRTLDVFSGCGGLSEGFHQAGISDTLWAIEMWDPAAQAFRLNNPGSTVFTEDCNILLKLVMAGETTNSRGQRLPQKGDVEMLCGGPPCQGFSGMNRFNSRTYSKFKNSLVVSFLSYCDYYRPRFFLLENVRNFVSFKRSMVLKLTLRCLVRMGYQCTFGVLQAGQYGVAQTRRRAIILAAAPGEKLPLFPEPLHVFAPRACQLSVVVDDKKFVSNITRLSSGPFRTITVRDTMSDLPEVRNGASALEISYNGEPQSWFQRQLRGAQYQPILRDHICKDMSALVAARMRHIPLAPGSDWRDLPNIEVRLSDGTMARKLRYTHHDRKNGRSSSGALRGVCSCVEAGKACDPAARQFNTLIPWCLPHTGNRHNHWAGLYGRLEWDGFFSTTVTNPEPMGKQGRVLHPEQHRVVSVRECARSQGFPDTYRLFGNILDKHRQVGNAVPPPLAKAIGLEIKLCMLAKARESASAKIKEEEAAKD", "assay": "DNMT1 expression in HL-60 xenograft tumor samples", "assay_type": "in vivo, mice", "parameters": "tumor samples were collected on day 11 to determine the expression of DNMT1, DNMT3A, and DNMT3B; from tissue; host or cells: HL-60 xenograft tumour samples (mouse host)", "conditions": "2 mg/kg NTX-301 or 0.75 mg/kg Decitabine intraperitoneally, day 11", "protocol": "(§1) As the efficacy of DNMT1 inhibitors correlates with their selective profile for targeting DNMT1 and the de novo methyltransferases DNMT3A and DNMT3B, we confirmed the expression of DNMT1, DNMT3A, and DNMT3B in the Aza-T-dCyd and Decitabine treated groups in this xenograft model (FIG. 27).\n(§2) In the HL-60 xenograft mice model, 2 mg/kg of NTX-301 (Aza-T-dCyd) or 0.75 mg/kg of Decitabine were administered intraperitoneally, and then tumor samples were collected on day 11 to determine the expression of DNMT1, DNMT3A, and DNMT3B. […] On the other hand, the expression levels of DNMT3A and DNMT3B were different in the Aza-T-dCyd and Decitabine treatment groups."}, "[2]": {"assay": "Human PK simulation / human dose projection", "conditions": "16 mg/day human dose", "protocol": "The human dose of NTX-301 should be divided by 3 or 4 to adjust the mouse exposure.\nThe 96 mg/day must be divided by 3 or 4, resulting in 24 to 32 mg/day.\nThis was a safe and effective dose in mice.\nFurthermore, based on the results of the combination with Venetoclax in the mouse model, an effective dose of 0.5 to 1.0 mg/kg was determined, which translates to a human dose of 8 to 16 mg+Venetoclax."}, "DNMT3B": {"target": "DNMT3B (Homo sapiens, UniProt Q9UBC3)", "assay": "DNMT3B expression in HL-60 xenograft tumor samples", "assay_type": "in vivo, mice", "parameters": "tumor samples were collected on day 11 to determine the expression of DNMT1, DNMT3A, and DNMT3B; from tissue; host or cells: HL-60 xenograft tumour samples (mouse host)", "conditions": "2 mg/kg NTX-301 or 0.75 mg/kg Decitabine intraperitoneally, day 11", "protocol": "as §1, §2"}, "[3]": {"assay": "Preliminary toxicity experiments (Comet assay, bone marrow)", "assay_type": "in vivo", "conditions": "mice", "protocol": "As a preliminary toxicity assessment of the Aza-T-dCyd compound, preliminary toxicity experiments were conducted to determine the presence of toxicity symptoms (tissue changes) and DNA damage in bone marrow in mice after 2 weeks of systemic administration, and to assess the cellular composition in bone marrow of mice after 4 weeks of systemic administration."}, "786-O": {"test_system": "786-O", "assay": "drug activity profiling cytotoxicity", "assay_type": "cell-based", "conditions": "Homo sapiens, 786-0; 786-O cell line, Kidney; read-out: Aza-T-dCyd IC50", "how_it_was_run": "(§3)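 Panel of 200 cell lines; Aza-T-dCyd cytotoxicity measured by drug activity profiling.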"}, "HepG2": {"test_system": "HepG2", "assay": "drug activity profiling cytotoxicity", "assay_type": "cell-based", "conditions": "Homo sapiens; HepG2 cell line, Liver; read-out: Aza-T-dCyd IC50", "how_it_was_run": "as §3"}, "NCI-H292": {"test_system": "NCI-H292", "assay": "drug activity profiling cytotoxicity", "assay_type": "cell-based", "conditions": "Homo sapiens; NCI-H292 cell line, Lung (NSCLC); read-out: Aza-T-dCyd IC50", "how_it_was_run": "as §3"}, "SK-MEL-3": {"test_system": "SK-MEL-3", "assay": "drug activity profiling cytotoxicity", "assay_type": "cell-based", "conditions": "Homo sapiens, SK-MEL3; SK-MEL-3 cell line, Skin (Melanoma); read-out: Aza-T-dCyd IC50", "how_it_was_run": "as §3"}, "H4": {"test_system": "H4", "assay": "drug activity profiling cytotoxicity", "assay_type": "cell-based", "conditions": "H4 cell line, CNS (Glioma); read-out: Aza-T-dCyd IC50", "how_it_was_run": "as §3"}, "HL-60 AML xenograft": {"test_system": "HL-60 AML xenograft", "assay": "HL-60 AML xenograft model", "assay_type": "in vivo", "conditions": "2.0 mg/kg"}, "[4]": {"test_system": "systemic MV4-11 engraftment model", "conditions": "for survival: oral", "protocol": "After establishing a systemic MV4-11 engraftment model that more accurately depicts the disease in humans, Aza-T-dCyd was administered orally at doses ranging from 0.4 to 1.5 mg/kg.\nAfter establishment of the systemic MV4-11 engraftment model, Aza-T-dCyd was administered orally at doses of 1.5, 2.0, and 2.5 mg/kg (using the standard dose/dosing schedule used in preclinical trials for decitabine/azacytidine).\nAfter establishing a systemic MV4-11 engraftment model, blood was collected at pre-treatment (Day 21) and mid-treatment (Day 36, 56, 77) in the Aza-T-dCyd and Decitabine/Azacytidine groups and analyzed for complete blood count (CBC) values.\nTo determine whether the anti-cancer efficacy in the systemic MV4-11 engraftment model was directly related to the ability to suppress the number of cancer cells, we performed experiments to measure body luminescence after systemic engraftment using the luciferase-transfected Mv4-11 cell line."}, "DNMT1 [5]": {"target": "T1, DNMT1", "assay": "DNMT1 protein Western blotting in cancer cell lines", "assay_type": "cell-based", "parameters": "endogenous in cells; host or cells: MV4-11, KG-1a, CCRF-CEM, NCI-H23, HCT-116, IGROV-1 (also HL-60, THP-1)", "conditions": "for DNMT1 protein (Western blotting): AML cell lines MV4-11 and KG-1a"}, "[6]": {"test_system": "RRM1 protein, dCTP and dTTP", "assay": "RRM1 expression and pyrimidine level in cells", "assay_type": "cell-based", "description": "The reduction of dCTP and dTTP, which act as important precursors for cancer cells to replicate DNA, can cause replication stress and generate a strong DNA damage response."}}, "note": "Like-named read-outs stand apart in the source and are kept apart here.", "data": [{"smiles": "Nc1ncn([C@H]2CC(O)[C@@H](CO)S2)c(=O)n1", "note": "(stereo partly drawn) [Aza-T-dCyd, 4′-thio-5-aza-2′-deoxycytidine]", "values": [{"measurement": "AUC value at which efficacy is shown", "setting": "MDS/AML model; MDS/AML model", "value": 60, "unit": "ng·h/mL"}, {"measurement": "AUC value of best therapeutic efficacy", "setting": "MDS/AML model; MDS/AML model", "value": "200 to 250", "unit": "ng·h/mL"}, {"measurement": "AUC of best efficacy relative to the HNSTD", "setting": "MDS/AML model; most sensitive species", "value": "about 25%"}, {"measurement": "AUC of best efficacy relative to the NOAEL value", "setting": "MDS/AML model; most sensitive species", "value": "about 50%"}, {"measurement": "DNMT1 expression in tumor samples", "setting": "DNMT1 [1]", "value": "significantly reduced"}, {"measurement": "human AUC converted to the mouse AUC value (factor of 3-4)", "setting": "[2]", "value": "150 to 200", "unit": "ng·h/mL"}, {"measurement": "DNMT3B expression level in tumor samples", "setting": "DNMT3B", "value": "significantly reduced"}, {"measurement": "cellular composition of the bone marrow", "setting": "[3]; 4 weeks of continuous administration", "value": "no changes in the various cells that make up the bone marrow"}, {"measurement": "organ damage at necropsy", "setting": "[3]; after two weeks", "value": "no organ damage"}, {"measurement": "Comet assay for DNA damage in bone marrow", "setting": "[3]; after two weeks of treatment, versus untreated control", "value": "no changes in various indicators of DNA damage"}, {"measurement": "weight changes", "setting": "[3]; two-week systemic administration", "value": "no significant weight changes"}, {"measurement": "IC50", "setting": "786-O", "value": 249, "unit": "nM"}, {"measurement": "IC50", "setting": "HepG2", "value": 892, "unit": "nM"}, {"measurement": "IC50", "setting": "NCI-H292", "value": 194, "unit": "nM"}, {"measurement": "IC50", "setting": "SK-MEL-3", "value": 522, "unit": "nM"}, {"measurement": "IC50", "setting": "H4", "value": 80.1, "unit": "nM"}, {"measurement": "tumor suppression", "setting": "HL-60 AML xenograft", "value": "strong tumor suppression"}, {"measurement": "anti-AML activity and survival", "setting": "[4]; Aza-T-dCyd oral 1.5, 2.0 and 2.5 mg/kg, decitabine/azacytidine at standard preclinical dose/schedule", "value": "very good anti-AML activity and improved survival"}, {"measurement": "body luminescence", "setting": "[4]; luciferase-transfected Mv4-11 cell line, systemic engraftment", "value": "inhibited body luminescence more strongly than the actual Azacytidine treatment"}, {"measurement": "complete blood count (WBC, RBC, Neutrophil, Platelet)", "setting": "[4]; mouse, in vivo", "value": "no changes"}, {"measurement": "survival", "setting": "[4]; highest dose (range 0.4 to 1.5 mg/kg)", "value": "more than half of the mice survived to the end of the experiment"}, {"measurement": "survival", "setting": "[4]; lowest dose of 0.4 mg/kg", "value": "statistically significant survival improvement"}, {"measurement": "DNMT1 protein (Western blotting)", "setting": "DNMT1 [5]; 20 nM", "value": "completely reduced DNMT1"}, {"measurement": "DNMT1 protein (Western blotting)", "setting": "DNMT1 [5]", "value": "reduced DNMT1 protein in a concentration-dependent manner"}, {"measurement": "DNMT1 inhibition", "setting": "DNMT1 [5]; CCRF-CEM (ALL cell line) cells, FIG. 12", "value": "inhibits DNMT1"}, {"measurement": "DNMT1 inhibition", "setting": "DNMT1 [5]; CCRF-CEM (ALL) and solid cancer cell line", "value": "can inhibit DNMT1 in a concentration-dependent manner"}, {"measurement": "DNMT1 inhibition", "setting": "DNMT1 [5]; KG-1a (AML cell line) cells, FIG. 11", "value": "inhibits DNMT1"}, {"measurement": "DNMT1 inhibition", "setting": "DNMT1 [5]; MV4-11 (AML cell line) cells, different concentrations, FIG. 10", "value": "inhibits DNMT1"}, {"measurement": "DNMT1 intracellular protein expression", "setting": "DNMT1 [5]; MV4-11, HL-60 and KG-1a cells, 72 hours", "value": "expression of DNMT1 was inhibited"}, {"measurement": "DNMT1 inhibition", "setting": "DNMT1 [5]; NCI-H23, HCT-116 and IGROV-1 cell lines, FIG. 13", "value": "inhibits DNMT1"}, {"measurement": "DNMT1 inhibition", "setting": "DNMT1 [5]; THP-1 cells, different concentrations", "value": "induced DNMT1 inhibition in a dose-dependent manner"}, {"measurement": "RRM1 protein expression", "setting": "[6]", "value": "inhibited the expression of RRM1 protein"}, {"measurement": "amount of dCTP and dTTP in the cells", "setting": "[6]", "value": "decreased the amount of dCTP and dTTP"}]}]}
